In the supplement of paper PMC10307832:

Key:
Test in all cases: relative viability (nuclei count vs DMSO), 5 days (fraction); higher = more cells survive
HCC-15 = system: HCC-15
Outline: (§1)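 Lung cancer cell lines in 1536-well plates got either a single drug or a fixed anchor-drug dose together with five library-drug doses (not always all listed) in √10 steps, by pin tool, on the day after seeding. Nuclei were counted after 5 days, and relative viability is the treated-to-vehicle ratio of nuclei counts. Values are medians of duplicate plates.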

LCLC-103H = system: LCLC-103H
Outline: as §1

NCI-H1563 = system: NCI-H1563
Outline: as §1

NCI-H1793 = system: NCI-H1793
Outline: as §1

A549 = system: A549
Outline: as §1

IA-LM = system: IA-LM
Outline: as §1

Calu-6 = system: Calu-6
Outline: as §1

EBC-1 = system: EBC-1
Outline: as §1

NCI-H1299 = system: NCI-H1299
Outline: as §1

NCI-H1703 = system: NCI-H1703
Outline: as §1

C=C1C(=O)O[C@@H](CCCCCCCC)[C@@H]1C(=O)O [C-75] + Nc1nc2[nH]cc(CCc3ccc(C(=O)N[C@@H](CCC(=O)O)C(=O)O)cc3)c2c(=O)[nH]1 [Pemetrexed] (partner 0.2 µM)
relative viability (HCC-15; first compound 0.08 µM): 0.246 | relative viability (HCC-15; first compound 0.253 µM): 0.239 | relative viability (HCC-15; first compound 0.8 µM): 0.203 | relative viability (HCC-15; first compound 2.53 µM): 0.208 | relative viability (HCC-15; first compound 8 µM): 0.223 | relative viability (LCLC-103H; first compound 0.08 µM): 0.464 | relative viability (LCLC-103H; first compound 0.253 µM): 0.428 | relative viability (LCLC-103H; first compound 0.8 µM): 0.458 | relative viability (LCLC-103H; first compound 2.53 µM): 0.326 | relative viability (LCLC-103H; first compound 8 µM): 0.433 | relative viability (NCI-H1563; first compound 0.08 µM): 0.8 | relative viability (NCI-H1563; first compound 0.253 µM): 0.915 | relative viability (NCI-H1563; first compound 0.8 µM): 0.753 | relative viability (NCI-H1563; first compound 2.53 µM): 0.666 | relative viability (NCI-H1563; first compound 8 µM): 0.924 | relative viability (NCI-H1793; first compound 0.08 µM): 0.702 | relative viability (NCI-H1793; first compound 0.253 µM): 0.954 | relative viability (NCI-H1793; first compound 2.53 µM): 0.59 | relative viability (NCI-H1793; first compound 8 µM): 0.958

C=C1C(=O)O[C@@H](CCCCCCCC)[C@@H]1C(=O)O [C-75] + Nc1ncn([C@H]2C[C@H](O)[C@@H](CO)O2)c(=O)n1 [Decitabine] (partner 2 µM)
relative viability (A549; first compound 0.08 µM): 0.27 | relative viability (A549; first compound 0.253 µM): 0.255 | relative viability (A549; first compound 0.8 µM): 0.273 | relative viability (A549; first compound 2.53 µM): 0.35 | relative viability (A549; first compound 8 µM): 0.215 | relative viability (HCC-15; first compound 0.08 µM): 0.691 | relative viability (HCC-15; first compound 0.253 µM): 0.636 | relative viability (HCC-15; first compound 0.8 µM): 0.551 | relative viability (HCC-15; first compound 2.53 µM): 0.543 | relative viability (HCC-15; first compound 8 µM): 0.626 | relative viability (LCLC-103H; first compound 0.08 µM): 0.697 | relative viability (LCLC-103H; first compound 0.253 µM): 0.716 | relative viability (LCLC-103H; first compound 0.8 µM): 0.674 | relative viability (LCLC-103H; first compound 2.53 µM): 0.623 | relative viability (LCLC-103H; first compound 8 µM): 0.725 | relative viability (NCI-H1793; first compound 0.08 µM): 0.485 | relative viability (NCI-H1793; first compound 0.253 µM): 0.571 | relative viability (NCI-H1793; first compound 2.53 µM): 0.275 | relative viability (NCI-H1793; first compound 8 µM): 0.449

C=C1C(=O)O[C@@H](CCCCCCCC)[C@@H]1C(=O)O [C-75] + O=C(CCCCCCC(=O)Nc1ccccc1)NO [Vorinostat] (partner 1 µM)
relative viability (HCC-15; first compound 0.08 µM): 0.831 | relative viability (HCC-15; first compound 0.253 µM): 0.918 | relative viability (HCC-15; first compound 0.8 µM): 0.838 | relative viability (HCC-15; first compound 2.53 µM): 0.862 | relative viability (HCC-15; first compound 8 µM): 0.835 | relative viability (IA-LM; first compound 0.08 µM): 0.886 | relative viability (IA-LM; first compound 0.253 µM): 1.35 | relative viability (IA-LM; first compound 0.8 µM): 0.935 | relative viability (IA-LM; first compound 2.53 µM): 1.25 | relative viability (IA-LM; first compound 8 µM): 0.8 | relative viability (LCLC-103H; first compound 0.08 µM): 0.736 | relative viability (LCLC-103H; first compound 0.253 µM): 0.758 | relative viability (LCLC-103H; first compound 0.8 µM): 0.708 | relative viability (LCLC-103H; first compound 2.53 µM): 0.664 | relative viability (LCLC-103H; first compound 8 µM): 0.765 | relative viability (NCI-H1793; first compound 0.08 µM): 0.674 | relative viability (NCI-H1793; first compound 0.253 µM): 1.01 | relative viability (NCI-H1793; first compound 2.53 µM): 0.425 | relative viability (NCI-H1793; first compound 8 µM): 0.751

C=C1C(=O)O[C@@H](CCCCCCCC)[C@@H]1C(=O)O [C-75] + O=C(c1cc(Cc2n[nH]c(=O)c3ccccc23)ccc1F)N1CCN(C(=O)C2CC2)CC1 [Olaparib] (partner 8 µM)
relative viability (A549; first compound 0.08 µM): 0.394 | relative viability (A549; first compound 0.253 µM): 0.497 | relative viability (A549; first compound 0.8 µM): 0.216 | relative viability (A549; first compound 2.53 µM): 0.128 | relative viability (A549; first compound 8 µM): 0.251 | relative viability (Calu-6; first compound 0.08 µM): 0.558 | relative viability (Calu-6; first compound 0.253 µM): 0.576 | relative viability (Calu-6; first compound 0.8 µM): 0.522 | relative viability (Calu-6; first compound 2.53 µM): 0.489 | relative viability (Calu-6; first compound 8 µM): 0.469 | relative viability (EBC-1; first compound 0.08 µM): 0.62 | relative viability (EBC-1; first compound 0.253 µM): 0.807 | relative viability (EBC-1; first compound 0.8 µM): 0.692 | relative viability (EBC-1; first compound 2.53 µM): 0.613 | relative viability (EBC-1; first compound 8 µM): 0.536 | relative viability (HCC-15; first compound 0.08 µM): 0.686 | relative viability (HCC-15; first compound 0.253 µM): 0.752 | relative viability (HCC-15; first compound 0.8 µM): 0.672 | relative viability (HCC-15; first compound 2.53 µM): 0.612 | relative viability (HCC-15; first compound 8 µM): 0.785 | relative viability (IA-LM; first compound 0.08 µM): 0.803 | relative viability (IA-LM; first compound 0.253 µM): 0.885 | relative viability (IA-LM; first compound 0.8 µM): 0.788 | relative viability (IA-LM; first compound 2.53 µM): 0.761 | relative viability (IA-LM; first compound 8 µM): 0.767 | relative viability (LCLC-103H; first compound 0.08 µM): 0.8 | relative viability (LCLC-103H; first compound 0.253 µM): 0.719 | relative viability (LCLC-103H; first compound 0.8 µM): 0.697 | relative viability (LCLC-103H; first compound 2.53 µM): 0.641 | relative viability (LCLC-103H; first compound 8 µM): 0.767 | relative viability (NCI-H1299; first compound 0.08 µM): 0.946 | relative viability (NCI-H1299; first compound 0.253 µM): 0.976 | relative viability (NCI-H1299; first compound 0.8 µM): 0.974 | relative viability (NCI-H1299; first compound 2.53 µM): 0.93 | relative viability (NCI-H1299; first compound 8 µM): 0.924 | relative viability (NCI-H1703; first compound 0.08 µM): 0.416 | relative viability (NCI-H1703; first compound 0.253 µM): 0.391 | relative viability (NCI-H1703; first compound 0.8 µM): 0.348 | relative viability (NCI-H1703; first compound 2.53 µM): 0.441 | relative viability (NCI-H1703; first compound 8 µM): 0.432 | relative viability (NCI-H1793; first compound 0.08 µM): 0.766 | relative viability (NCI-H1793; first compound 0.253 µM): 0.988 | relative viability (NCI-H1793; first compound 2.53 µM): 0.705 | relative viability (NCI-H1793; first compound 8 µM): 0.83
